Our source for the IC50 values is US8283378B2, “Phenylurea inhibitors of the SOAT-1 enzyme and pharmaceutical/cosmetic compositions comprised thereof” (Galderma Research & Development, priority 2007, dated 2012).

As a reminder, the IC50 is the point on the concentration scale where inhibition reaches its midpoint. A lower IC50 goes with greater potency in that assay.

Each structure is given as a SMILES string.

The assay concerns the target T1, enzyme ACAT-1 (Homo sapiens, UniProt P35610).
T1 construct: endogenous in cells; host or cells: HepG2
T1 sequence (P35610 1-550): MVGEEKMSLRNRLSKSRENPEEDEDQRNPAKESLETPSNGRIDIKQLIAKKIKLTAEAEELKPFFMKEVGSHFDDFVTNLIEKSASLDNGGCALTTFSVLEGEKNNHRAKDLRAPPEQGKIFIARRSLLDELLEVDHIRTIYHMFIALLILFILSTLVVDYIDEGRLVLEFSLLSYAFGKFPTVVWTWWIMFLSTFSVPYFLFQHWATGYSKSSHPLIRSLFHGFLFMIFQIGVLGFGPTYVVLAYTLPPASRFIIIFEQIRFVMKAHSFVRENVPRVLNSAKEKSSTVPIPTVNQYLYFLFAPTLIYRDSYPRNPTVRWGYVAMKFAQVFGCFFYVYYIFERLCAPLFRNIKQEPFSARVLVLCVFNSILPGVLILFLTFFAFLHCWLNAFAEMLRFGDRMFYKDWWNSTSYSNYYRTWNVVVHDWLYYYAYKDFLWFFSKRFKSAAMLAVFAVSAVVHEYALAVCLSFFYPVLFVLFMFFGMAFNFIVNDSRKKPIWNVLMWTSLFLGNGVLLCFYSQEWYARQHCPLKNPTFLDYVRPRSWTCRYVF
Description: primary HepG2 enzyme test: cell-based NBD-cholesterol fluorescence assay of ACAT-1 (SOAT-1) inhibition. To be noted: HepG2 cells, NBD-cholesterol 1 μg/ml, incubation 6 h at 37° C., fluorescence excitation 490 nm / emission 540 nm. As for the experimental part:
The compounds (I) according to the invention, as well as their pharmaceutically acceptable salts, solvates and/or hydrates, display SOAT-1 enzyme inhibiting properties. This inhibitory effect on the SOAT-1 enzyme is measured by a primary HepG2 enzyme test, as described below.
The compounds of formula (I) according to the invention were tested to evaluate their inhibitory activity with respect to the enzyme ACAT-1 based on the following work: “Identification of ACAT1- and ACAT2-specific inhibitors using a novel, cell based fluorescence assay: individual ACAT uniqueness”, J. lipid. Res (2004) vol 45, pages 378-386. The principle of this test is based on the use of NBD-cholesterol, an analogue of cholesterol with fluorescence depending on its environment. When it is in a polar environment it is weakly fluorescent, whereas in a non-polar environment it is strongly fluorescent. Free NBD-cholesterol localizes in the cell membranes and is weakly fluorescent in this polar environment. […]
The following method is used: HepG2 cells are incubated in the presence of NBD-cholesterol (1 μg/ml) and of the test compound of formula (I) in black, transparent-bottom 96-well plates at a rate of 30000 cells per well. […] After adding 50 μl of lysis buffer (NaPO4 10 mM, Igepal 1%) the plates are agitated for 5 min and, read in fluorescence (excitation 490 nm, emission 540 nm) on a FUSION instrument (Perkin Elmer).

`CC(C)c1cccc(C(C)C)c1NC(=O)NCC1(SCc2ccccc2)CCCCC1` [Compound (I.4), 1-(1-Benzylsulfanyl-cyclohexylmethyl)-3-(2,6-diisopropyl-phenyl)-urea]: inhibition was half-maximal at 71 nM (IC50).
